One compound from patent publication EP0082648A2, “Cephalosporin derivatives” (IMPERIAL CHEMICAL INDUSTRIES PLC, priority 1981, dated 1983) can be followed below.

In general, MIC refers to the lowest concentration found to suppress growth.

A short description of data set [1]: Toxicity observation after subcutaneous administration to mice. Format: in vivo. The following applies: dose four times the minimum effective dose which protected 50% of the mice against infection with Salmonella dublin. As for the experimental part:
Thus the compound 7-(4-[3-(3-cyano-2-methylisothioureido)propyl]imidazol-2-yl)amino-3-(1-methyl-lH-tetrazol-5-yl)thiomethylceph-3-em-4-carboxylic acid (Example 4) was administered subcutaneously to mice at a dose four times that of the minimum effective dose which protected 50% of the mice against infection with Salmonella dublin.

Data set [2] deals with Salmonella dublin. Nature of the data set: In vitro agar dilution MIC test, Jewell and Pearmain agar medium. It counts as cell-based. Particulars: Salmonella enterica, Code A20, inoculum size ~10^5 CFU. An excerpt: (§1) The results set out in the following Table are illustrative of the biological activity of one of the preferred compounds of the present invention, that of Example 4. The following results are those obtained on a standard in vitro test system using Jewell and Pearmain agar medium. The antibacterial activity is described in terms of the minimum inhibitory concentration (MIC) determined by agar - dilution technique with an inoculum size of ~10^5 CFU.
For orientation: Agar dilution tests growth on a series of plates holding different concentrations.

For data set [3], the system named is Strep. pyogenes. The description is as above. Particulars: Streptococcus pyogenes, Code A1, inoculum size ~10^5 CFU. It counts as cell-based.
Text: as §1

The test system of data set [4] is Serratia marescens. The data set is described as above. Format: cell-based. The following applies: Code A16, inoculum size ~10^5 CFU.
Text: as §1

Data set [5] concerns Ps. aeruginosa. Described as above. The following applies: Pseudomonas aeruginosa, Code A21, inoculum size ~10^5 CFU. Format: cell-based.
Text: as §1

The test system of data set [6] is K. aerogenes. Described as above. Format: cell-based. Particulars: Klebsiella aerogenes, Code A10, inoculum size ~10^5 CFU.
Text: as §1

Data set [7] has as its system Proteus mirabilis. The data set is described as above. Format: cell-based. The following applies: Code A18, inoculum size ~10^5 CFU.
Text: as §1

In data set [8] the test system is Ent. cloacae. Described as above. It counts as cell-based. The following applies: Enterobacter cloacae, Code A13, inoculum size ~10^5 CFU.
Text: as §1

The subject of data set [9] is Staph. aureus. The description is as above. Format: cell-based. The following applies: Staphylococcus aureus, Code A6, inoculum size ~10^5 CFU.
Text: as §1

The subject of data set [10] is E. coli. Described as above. It counts as cell-based. The following applies: Escherichia coli, Code A8, inoculum size ~10^5 CFU.
Text: as §1

Converted amounts (≈) assume the structure as drawn.

Take `CSC(=NC#N)NCCCc1c[nH]c(NC2C(=O)N3C(C(=O)O)=C(CSc4nnnn4C)CS[C@H]23)n1` (stereo partly shown) [Example 4, 7-(4-[3-(3-cyano-2-methylisothioureido)propyl]imidazol-2-yl)amino-3-(1-methyl-1H-tetrazol-5-yl)thiomethylceph-3-em-4-carboxylic acid]: the “overt toxic symptoms or side effects” value in [1] was “No overt toxic symptoms or side effects attributable to the administered compound were noted”. Moreover, the minimum inhibitory concentration (MIC) is 0.03 µg/mL (≈ 0.0546 µM) in data set [2]; 8 µg/mL (≈ 14.6 µM) in data set [3]; 4 µg/mL (≈ 7.28 µM) in [4]; > 128 µg/mL in data set [5]; 0.12 µg/mL (≈ 0.218 µM) in [6]; 1 µg/mL (≈ 1.82 µM) in data set [7]. For the same compound, the MIC in data set [8] was determined as 32 µg/mL (≈ 58.2 µM); in data set [9], 16 µg/mL (≈ 29.1 µM); in [10], 0.06 µg/mL (≈ 0.109 µM).
